According to patent publication US11690838B2, “Therapeutic agent for fibrosis” (TAIHO PHARMACEUTICAL CO., LTD., priority 2015, dated 2023):

Tested on: Bleomycin-Induced Mouse Pathology (Lung Fibrosis) Model
Assay: Suppression effect on bleomycin-induced mouse pathology (lung fibrosis) model
Format: in vivo
Conditions: C57BL mice, bleomycin intratracheal, every day for 35 days; for hydroxyproline amount of lung tissues compared to the control group (pathological condition): FIG. 1; for score of abnormal accumulation of a fibrous tissue in lung tissues (Ashcroft's method) compared to the control group: FIG. 2
Experimental: Test Example 1: Suppression Effect on Bleomycin-Induced Mouse Pathology (Lung Fibrosis) Model
Mice (C57BL, 6 weeks old) were anesthetized by intraperitoneally administrating pentobarbital (50 mg/kg/day), and then bleomycin (20 μg/25 μL per mouse) was intra-tracheally sprayed by a sprayer. A week later, the mice were anesthetized by inhalation of isoflurane, 0.2 mL of blood was taken from the eye orbit of the mice. The blood level of a surfactant protein-D (SP-D) was measured. The mice were divided into groups (9 mice) such that the groups have an equal average SP-D value.
The compound of the present invention was orally administered at each of doses of 100 and 200 mg/kg/day, every day for 35 days. In order to confirm whether a pathological model was established, an untreated group (Normal group) and a Sham group were set up. To the mice of the Sham group, physiological saline was intratracheally sprayed in place of bleomycin. The next day after completion of the final administration, the mice were anesthetized by inhalation of isoflurane and euthanized. Thereafter, the lungs were excised out and subjected to pathological analysis for tissues. Abnormal accumulation of a fibrous tissue was evaluated and the amounts of hydroxyproline in the tissues were measured. The abnormal accumulation of a fibrous tissue was evaluated by using Ashcroft's method (J Clin Pathol 1988; 41: 467-470).
The hydroxyproline amounts of lung tissues of individual groups are shown in FIG. 1 and scores of abnormal accumulation of a fibrous tissue in the lung tissues are shown in FIG. 2. […] From this, it was determined that abnormal accumulation of a fibrous tissue in the lung tissue in mice was induced by bleomycin treatment and pathological models are established.

CNC(=O)c1cc2c(Oc3ccc(NC(=S)NC(=O)Cc4ccccc4)cc3F)ccnc2cc1OC [the compound of the present invention, 4-[2-Fluoro-4-[[[(2-phenylacetyl)amino]thioxomethyl]amino]-phenoxy]-7-methoxy-N-methyl-6-quinolinecarboxamide]
significantly low: hydroxyproline amount of lung tissues compared to the control group (pathological condition) (100 mg/kg/day orally) | score of abnormal accumulation of a fibrous tissue in lung tissues (Ashcroft's method) compared to the control group (100 mg/kg/day orally) | hydroxyproline amount of lung tissues compared to the control group (pathological condition) (200 mg/kg/day orally) | score of abnormal accumulation of a fibrous tissue in lung tissues (Ashcroft's method) compared to the control group (200 mg/kg/day orally)
